Measured values: ChEMBL document CHEMBL1201862, “PubChem BioAssay data set” (2004)
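Interpolation was linear, between the two tested concentrations surrounding the appropriate level; five concentrations were tested over 48 hours in 96-well plates. GI50 marks 50% less growth.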 Calls of active or inactive are those of the source. Rule as the data show it: active = GI50 up to about 1.1 µM and inactive = higher.

What was measured:
Experiment in all cases: inhibition of tumour cell growth, NCI panel, 48 h
SK-MEL-2 = tested on: SK-MEL-2
KM12 = tested on: KM12
OVCAR-5 = tested on: OVCAR-5
CAKI-1 = tested on: CAKI-1
HOP-62 = tested on: HOP-62
NCI-H226 = tested on: NCI-H226
SNB-75 = tested on: SNB-75
UACC-62 = tested on: UACC-62
SW-620 = tested on: SW-620
LXFL 529 = tested on: LXFL 529
EKVX = tested on: EKVX
OVCAR-8 = tested on: OVCAR-8
U-251 = tested on: U-251
RXF 631 = tested on: RXF 631
786-0 = tested on: 786-0
ACHN = tested on: ACHN
KM-20L2 = tested on: KM-20L2
A549 = tested on: A549
COLO 205 = tested on: COLO 205
RPMI-8226 = tested on: RPMI-8226
DMS-273 = tested on: DMS-273
HT-29 = tested on: HT-29
NCI-H460 = tested on: NCI-H460
RXF 393 = tested on: RXF 393
NCI-H522 = tested on: NCI-H522
TK-10 = tested on: TK-10
SR = tested on: SR
A498 = tested on: A498
HOP-92 = tested on: HOP-92
SF-268 = tested on: SF-268
Malme-3M = tested on: Malme-3M
SF-539 = tested on: SF-539
DLD-1 = tested on: DLD-1
HCT-116 = tested on: HCT-116
SNB-78 = tested on: SNB-78
SF-295 = tested on: SF-295
HCT-15 = tested on: HCT-15
LOX IMVI = tested on: LOX IMVI
M14 = tested on: M14
UO-31 = tested on: UO-31
K562 = tested on: K562
SNB-19 = tested on: SNB-19
HOP-18 = tested on: HOP-18
CCRF-CEM = tested on: CCRF-CEM
HCC 2998 = tested on: HCC 2998
SK-OV-3 = tested on: SK-OV-3
SN12C = tested on: SN12C
HL-60 = tested on: HL-60
OVCAR-3 = tested on: OVCAR-3
M19-MEL = tested on: M19-MEL
OVCAR-4 = tested on: OVCAR-4
UACC-257 = tested on: UACC-257
MOLT-4 = tested on: MOLT-4
XF498 = tested on: XF498
SK-MEL-28 = tested on: SK-MEL-28
IGROV-1 = tested on: IGROV-1
SK-MEL-5 = tested on: SK-MEL-5
NCI-H23 = tested on: NCI-H23

## COC(=O)C(C(=O)C(=O)Nc1c(Cl)cc([N+](=O)[O-])cc1Cl)c1csc(-n2nc(C3=CCCCC3)cc2-c2ccccc2)n1 (configuration not stated)
SK-MEL-2
  GI50: > 100 µM (inactive)
KM12
  GI50: 45 µM (inactive)
OVCAR-5
  GI50: 35 µM (inactive)
CAKI-1
  GI50: 46.9 µM (inactive)
HOP-62
  GI50: 64.9 µM (inactive)
NCI-H226
  GI50: 25.4 µM (inactive)
SNB-75
  GI50: 30.7 µM (inactive)
UACC-62
  GI50: 65.8 µM (inactive)
SW-620
  GI50: 71 µM (inactive)
LXFL 529
  GI50: 40.7 µM (inactive)
EKVX
  GI50: 8.47 µM (inactive)
OVCAR-8
  GI50: 61.7 µM (inactive)
U-251
  GI50: > 100 µM (inactive)
RXF 631
  GI50: 45.6 µM (inactive)
786-0
  GI50: 74 µM (inactive)
ACHN
  GI50: 35.5 µM (inactive)
KM-20L2
  GI50: 29 µM (inactive)
A549
  GI50: 64.7 µM (inactive)
COLO 205
  GI50: 32.1 µM (inactive)
RPMI-8226
  GI50: 27.9 µM (inactive)
DMS-273
  GI50: 74.5 µM (inactive)
HT-29
  GI50: 25.9 µM (inactive)
NCI-H460
  GI50: 82.8 µM (inactive)
RXF 393
  GI50: 63.7 µM (inactive)
NCI-H522
  GI50: 45.2 µM (inactive)
TK-10
  GI50: 64.9 µM (inactive)
SR
  GI50: 22.5 µM (inactive)
A498
  GI50: 32.9 µM (inactive)
HOP-92
  GI50: 10.1 µM (inactive)
SF-268
  GI50: 71.8 µM (inactive)
Malme-3M
  GI50: > 100 µM (inactive)
SF-539
  GI50: 34.8 µM (inactive)
DLD-1
  GI50: 28.8 µM (inactive)
HCT-116
  GI50: 42.5 µM (inactive)
SNB-78
  GI50: 40 µM (inactive)
SF-295
  GI50: 43.8 µM (inactive)
HCT-15
  GI50: 36.2 µM
LOX IMVI
  GI50: 43.9 µM (inactive)
M14
  GI50: > 100 µM (inactive)
UO-31
  GI50: 25.9 µM (inactive)
K562
  GI50: 48.5 µM (inactive)
SNB-19
  GI50: 37.3 µM (inactive)
HOP-18
  GI50: 10.3 µM (inactive)
CCRF-CEM
  GI50: 73.5 µM (inactive)
HCC 2998
  GI50: > 100 µM (inactive)
SK-OV-3
  GI50: 34.3 µM (inactive)
SN12C
  GI50: 67.9 µM (inactive)
HL-60
  GI50: 40 µM (inactive)
OVCAR-3
  GI50: 59 µM (inactive)
M19-MEL
  GI50: 52.7 µM (inactive)
OVCAR-4
  GI50: > 100 µM (inactive)
UACC-257
  GI50: 46.6 µM (inactive)
MOLT-4
  GI50: 52.2 µM (inactive)

## COC1=CC(=O)[C@]2(C)[C@H](C1=O)C(C)[C@H]2c1ccccc1 (some centres not stated)
SK-MEL-2
  GI50: > 100 µM (inactive)
KM12
  GI50: > 100 µM (inactive)
XF498
  GI50: > 100 µM (inactive)
OVCAR-5
  GI50: > 100 µM (inactive)
CAKI-1
  GI50: > 100 µM (inactive)
HOP-62
  GI50: > 100 µM (inactive)
NCI-H226
  GI50: > 100 µM (inactive)
SNB-75
  GI50: > 100 µM (inactive)
UACC-62
  GI50: > 100 µM (inactive)
SW-620
  GI50: > 100 µM (inactive)
LXFL 529
  GI50: > 100 µM (inactive)
EKVX
  GI50: > 100 µM (inactive)
OVCAR-8
  GI50: > 100 µM (inactive)
U-251
  GI50: > 100 µM (inactive)
RXF 631
  GI50: > 100 µM (inactive)
786-0
  GI50: > 100 µM (inactive)
SK-MEL-28
  GI50: > 100 µM (inactive)
ACHN
  GI50: > 100 µM (inactive)
A549
  GI50: > 100 µM (inactive)
IGROV-1
  GI50: > 100 µM (inactive)
COLO 205
  GI50: > 100 µM (inactive)
RPMI-8226
  GI50: > 100 µM (inactive)
DMS-273
  GI50: > 100 µM (inactive)
HT-29
  GI50: > 100 µM (inactive)
NCI-H460
  GI50: > 100 µM (inactive)
RXF 393
  GI50: > 100 µM (inactive)
NCI-H522
  GI50: > 100 µM (inactive)
TK-10
  GI50: > 100 µM (inactive)
SR
  GI50: > 100 µM (inactive)
A498
  GI50: > 100 µM (inactive)
HOP-92
  GI50: > 100 µM (inactive)
SF-268
  GI50: > 100 µM (inactive)
Malme-3M
  GI50: > 100 µM (inactive)
SF-539
  GI50: > 100 µM (inactive)
DLD-1
  GI50: > 100 µM (inactive)
SNB-78
  GI50: > 100 µM (inactive)
SF-295
  GI50: > 100 µM (inactive)
HCT-15
  GI50: > 100 µM
LOX IMVI
  GI50: > 100 µM (inactive)
M14
  GI50: > 100 µM (inactive)
UO-31
  GI50: > 100 µM (inactive)
K562
  GI50: > 100 µM (inactive)
SNB-19
  GI50: > 100 µM (inactive)
SK-MEL-5
  GI50: > 100 µM (inactive)
CCRF-CEM
  GI50: > 100 µM (inactive)
HCC 2998
  GI50: > 100 µM (inactive)
SK-OV-3
  GI50: > 100 µM (inactive)
HL-60
  GI50: > 100 µM (inactive)
OVCAR-3
  GI50: > 100 µM (inactive)
M19-MEL
  GI50: > 100 µM (inactive)
NCI-H23
  GI50: > 100 µM (inactive)
OVCAR-4
  GI50: > 100 µM (inactive)
UACC-257
  GI50: > 100 µM (inactive)
MOLT-4
  GI50: > 100 µM (inactive)
